In the supplement of paper PMC10307832:

What follows are cell lines tested with O=C(O)C(Cc1ccccc1[N+](=O)[O-])=NNc1nc(-c2ccc(Cl)c(Cl)c2)cs1 (mixture of isomers) [4EGI-1] (assay: relative viability (nuclei count vs DMSO), 5 days (fraction); higher = more cells survive). Conditions: 50 µM.
Outline: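 Lung cancer cell lines in 1536-well plates were kept overnight at 37 °C, then pinned with five library-drug doses (not always all listed) spaced by √10 on vehicle-anchored plates. After 5 days without medium change, cells were fixed, permeabilised and Hoechst-stained in one step, imaged at 4×, and nuclei were counted with MetaXpress. Viability is treated-well nuclei divided by vehicle-well nuclei, taken as the median over plates. Plates passed only with control CV below 25% and at least one doubling.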

Cell Line | relative viability
201T | 0.806
A549 | 0.369
A-427 | 0.254
ABC-1 | 0.195
BEN | 0.728
CAL-12T | 0.518
COR-L23 | 0.155
COR-L 105 | 0.648
Calu-6 | 0.618
ChaGo-K-1 | 0.616
EBC-1 | 0.296
EKVX | 0.859
EMC-BAC-2 | 0.538
EPLC-272H | 0.235
H3255 | 0.981
HARA | 0.257
HCC-15 | 0.583
HCC-44 | 0.695

Cell Line | relative viability
HCC-78 | 0.872
HCC-366 | 0.411
HCC-827 | 0.922
HOP-62 | 0.744
IA-LM | 0.0847
LC-2-ad | 0.248
LCLC-97TM1 | 0.632
LCLC-103H | 0.696
LK-2 | 0.854
LOU-NH91 | 0.751
LU99A | 0.564
NCI-H441 | 0.307
NCI-H522 | 0.69
NCI-H1623 | 0.843
NCI-H1648 | 0.509
NCI-H2342 | 0.869
SW 900 | 0.213

These cell lines were tested with CN1CCN(CC1)C2=CC(=C(C=C2)NC3=NC=C4C(=N3)N(C5=CC=CC=C5C(=O)N4C)C)OC [XMD8-85] + CS(=O)(=O)N1CCN(Cc2cc3nc(-c4cccc5[nH]ncc45)nc(N4CCOCC4)c3s2)CC1 [Pictilisib] (partner 1 µM) (assay: relative viability (nuclei count vs DMSO), 5 days (fraction); higher = more cells survive). Conditions: first compound 0.08 µM.
Outline: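 One day after seeding in 1536-well plates, lung cancer cell lines were dosed by pin tool. Dosing was either single-drug or a fixed anchor-drug dose plus five library-drug doses (not always all listed) in √10 steps. After 5 days, nuclei were stained in one fix-and-stain step and counted on 4× images, and relative viability is the nuclei count of treated wells over that of vehicle wells, given as the median of duplicate plates.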

Cell Line | relative viability
201T | 0.635
A549 | 0.517
A-427 | 0.683
ABC-1 | 0.628
BEN | 0.535
CAL-12T | 0.396
COR-L23 | 0.8
COR-L 105 | 0.429
Calu-6 | 1.02
ChaGo-K-1 | 0.808
EBC-1 | 0.383
EKVX | 0.454
EMC-BAC-2 | 0.493
H3255 | 0.565
HARA | 0.47
HCC-15 | 0.684
HCC-44 | 0.616
HCC-78 | 0.267
HCC-366 | 0.137
HCC-827 | 1.16
HOP-62 | 0.734
IA-LM | 0.342
LC-2-ad | 0.433
LCLC-97TM1 | 0.181
LCLC-103H | 0.606
LK-2 | 0.531
LOU-NH91 | 0.52
LU99A | 0.32
NCI-H441 | 0.405

Same assay, conditions: first compound 0.253 µM

Cell Line | relative viability
201T | 0.677
A549 | 0.516
A-427 | 0.808
ABC-1 | 0.614
BEN | 0.547
CAL-12T | 0.541
COR-L23 | 0.717
COR-L 105 | 0.415
Calu-6 | 0.97
ChaGo-K-1 | 0.692
EBC-1 | 0.364
EKVX | 0.467
EMC-BAC-2 | 0.569
EPLC-272H | 0.324
H3255 | 0.465
HARA | 0.473
HCC-15 | 0.691
HCC-44 | 0.548
HCC-78 | 0.22
HCC-366 | 0.239
HCC-827 | 1.03
HOP-62 | 0.723
IA-LM | 0.187
LC-2-ad | 0.497
LCLC-97TM1 | 0.22
LCLC-103H | 0.615
LK-2 | 0.439
LOU-NH91 | 0.566
LU99A | 0.302
NCI-H441 | 0.389

Same assay, conditions: first compound 0.8 µM

Cell Line | relative viability
201T | 0.723
A549 | 0.591
A-427 | 0.813
ABC-1 | 0.942
CAL-12T | 0.393
COR-L23 | 1.01
COR-L 105 | 0.359
Calu-6 | 1.05
ChaGo-K-1 | 0.689
EBC-1 | 0.502
EKVX | 0.416
EMC-BAC-2 | 0.527
EPLC-272H | 0.318
HARA | 0.455
HCC-15 | 0.76
HCC-44 | 0.767
HCC-78 | 0.228
HCC-366 | 0.146
HCC-827 | 0.902
HOP-62 | 0.858
IA-LM | 0.334
LC-2-ad | 0.543
LCLC-97TM1 | 0.248
LCLC-103H | 0.66
LK-2 | 0.574
LOU-NH91 | 0.526
LU99A | 0.339
NCI-H441 | 0.608

Same assay, conditions: first compound 2.53 µM

Cell Line | relative viability
201T | 0.746
A-427 | 0.737
ABC-1 | 0.746
BEN | 0.483
CAL-12T | 0.395
COR-L23 | 0.798
COR-L 105 | 0.353
Calu-6 | 0.979
ChaGo-K-1 | 0.697
EBC-1 | 0.339
EKVX | 0.451
EMC-BAC-2 | 0.589
EPLC-272H | 0.327
H3255 | 0.531
HARA | 0.436
HCC-15 | 0.728
HCC-44 | 0.783
HCC-78 | 0.206
HCC-366 | 0.168
HCC-827 | 1.11
HOP-62 | 0.559
IA-LM | 0.193
LC-2-ad | 0.483
LCLC-97TM1 | 0.173
LCLC-103H | 0.598
LK-2 | 0.361
LOU-NH91 | 0.516
LU99A | 0.367
NCI-H441 | 0.438

Same assay, conditions: first compound 8 µM

Cell Line | relative viability
201T | 0.556
A549 | 0.483
